Results as given in ChEMBL document CHEMBL1201862, “PubChem BioAssay data set” (2004).
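Each compound was tested at five concentrations against cells in 96-well plates for 48 hours. The concentration for 50% growth inhibition is given as GI50.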 Active and inactive are the calls of the source. Rule as the data show it: active = GI50 up to about 1.1 µM and inactive = higher.

What was measured:
Experiment in all cases: NCI tumour cell line growth inhibition, 48 h
CAKI-1 = system: CAKI-1
COLO 205 = system: COLO 205
EKVX = system: EKVX
HCC 2998 = system: HCC 2998
HOP-62 = system: HOP-62
HOP-92 = system: HOP-92
MCF7 = system: MCF7
MDA-MB-231 = system: MDA-MB-231
Malme-3M = system: Malme-3M
NCI-H23 = system: NCI-H23
OVCAR-4 = system: OVCAR-4
OVCAR-8 = system: OVCAR-8
RPMI-8226 = system: RPMI-8226
SF-268 = system: SF-268
SK-MEL-2 = system: SK-MEL-2
SK-MEL-5 = system: SK-MEL-5
SN12C = system: SN12C
SR = system: SR
U-251 = system: U-251
UO-31 = system: UO-31

Structure (SMILES)	GI50 (CAKI-1)	GI50 (COLO 205)	GI50 (EKVX)	GI50 (HCC 2998)	GI50 (HOP-62)	GI50 (HOP-92)	GI50 (MCF7)	GI50 (MDA-MB-231)	GI50 (Malme-3M)	GI50 (NCI-H23)	GI50 (OVCAR-4)	GI50 (OVCAR-8)	GI50 (RPMI-8226)	GI50 (SF-268)	GI50 (SK-MEL-2)	GI50 (SK-MEL-5)	GI50 (SN12C)	GI50 (SR)	GI50 (U-251)	GI50 (UO-31)
O=[N+]([O-])/C=C/c1cc2ccc3ccccc3c2[nH]1	2.23 µM (inactive)	1.75 µM (inactive)	2.76 µM (inactive)	1.92 µM (inactive)	1.98 µM (inactive)	1.76 µM (inactive)	1.44 µM (inactive)	1.43 µM (inactive)	1.55 µM (inactive)	2.02 µM (inactive)	1.98 µM (inactive)	2.28 µM (inactive)	0.229 µM (active)	1.77 µM (inactive)	0.796 µM (active)	1.64 µM (inactive)	1.86 µM (inactive)	0.555 µM (active)	1.34 µM (inactive)	1.56 µM (inactive)
C/C(=N\Nc1nc2cc(C)ccc2s1)c1ccccn1	0.0562 µM (active)	0.0518 µM (active)	0.143 µM (active)	1.29 µM (inactive)	0.294 µM (active)	0.282 µM (active)	0.119 µM (active)	0.233 µM (active)	0.332 µM (active)	0.39 µM (active)	0.324 µM (active)	0.18 µM (active)	0.273 µM (active)	0.505 µM (active)	0.4 µM (active)	0.404 µM (active)	0.401 µM (active)	0.232 µM (active)	0.946 µM (active)	0.117 µM (active)
CCN(CC)C(=O)Cn1c2ccccc2[n+]2cc(N)ccc12	> 100 µM (inactive)	> 100 µM (inactive)	> 100 µM (inactive)	> 100 µM (inactive)	> 100 µM (inactive)	> 100 µM (inactive)	> 100 µM (inactive)	> 100 µM (inactive)	> 100 µM (inactive)	> 100 µM (inactive)	> 100 µM (inactive)	> 100 µM (inactive)	> 100 µM (inactive)	> 100 µM (inactive)	> 100 µM (inactive)	> 100 µM (inactive)	–	> 100 µM (inactive)	> 100 µM (inactive)	> 100 µM (inactive)
COC(=O)CCCC(=O)/C(=N\Nc1ccc(Cl)cc1)Nc1c(Cl)cccc1Cl	> 100 µM (inactive)	22.7 µM (inactive)	51.8 µM (inactive)	58.7 µM (inactive)	> 67.6 µM (inactive)	45 µM (inactive)	53.8 µM (inactive)	> 82.8 µM (inactive)	97.1 µM (inactive)	48.2 µM (inactive)	46.3 µM (inactive)	> 100 µM (inactive)	21.8 µM (inactive)	> 89.7 µM (inactive)	24.6 µM (inactive)	32.8 µM (inactive)	> 100 µM (inactive)	20.5 µM (inactive)	55.5 µM (inactive)	34.4 µM (inactive)
Cc1nc2c(o1)C(=O)c1ccccc1/C2=N\c1ccccc1	17.9 µM (inactive)	13.9 µM (inactive)	5.78 µM (inactive)	15.2 µM (inactive)	2.45 µM (inactive)	2.27 µM (inactive)	2.37 µM (inactive)	0.968 µM (active)	1.36 µM (inactive)	1.38 µM (inactive)	2.4 µM (inactive)	2 µM (inactive)	1.97 µM (inactive)	4.01 µM (inactive)	1.46 µM (inactive)	1.35 µM (inactive)	2.04 µM (inactive)	4.3 µM (inactive)	1.76 µM (inactive)	2.98 µM (inactive)
CCOC(=O)C1(Cc2ccc(C)cc2)Cc2ccc(C)cc2C1=O (centres undefined)	19.5 µM (inactive)	11.7 µM (inactive)	36.7 µM (inactive)	16.8 µM (inactive)	21.1 µM (inactive)	14.6 µM (inactive)	6.52 µM (inactive)	16.5 µM (inactive)	16.4 µM (inactive)	18.5 µM (inactive)	36.4 µM (inactive)	27.2 µM (inactive)	12.2 µM (inactive)	48.4 µM (inactive)	14.6 µM (inactive)	6.4 µM (inactive)	14.9 µM (inactive)	3.61 µM (inactive)	10 µM (inactive)	38.5 µM (inactive)
COc1ccc2c3c(ccc2c1)NC(C(=O)O)CC3 (centres undefined)	88.3 µM (inactive)	39.5 µM (inactive)	67.8 µM (inactive)	44.3 µM (inactive)	80.5 µM (inactive)	79.4 µM (inactive)	36.4 µM (inactive)	85.7 µM (inactive)	> 100 µM (inactive)	> 100 µM (inactive)	65.3 µM (inactive)	64.4 µM (inactive)	17.1 µM (inactive)	39.1 µM (inactive)	> 100 µM (inactive)	27.4 µM (inactive)	63.1 µM (inactive)	18.5 µM (inactive)	38.2 µM (inactive)	47 µM (inactive)
O=C1c2c(ccc3c2CCC3)CC12Cc1cc3c(cc1C2)CCC3	> 100 µM (inactive)	> 100 µM (inactive)	> 100 µM (inactive)	> 100 µM (inactive)	> 100 µM (inactive)	> 100 µM (inactive)	> 100 µM (inactive)	> 100 µM (inactive)	20.1 µM (inactive)	> 100 µM (inactive)	> 100 µM (inactive)	> 100 µM (inactive)	> 100 µM (inactive)	> 100 µM (inactive)	> 100 µM (inactive)	> 100 µM (inactive)	> 100 µM (inactive)	> 100 µM (inactive)	70.3 µM (inactive)	> 100 µM (inactive)
N#Cc1nc(-c2ccccc2C(=O)O)oc1N	> 100 µM (inactive)	> 100 µM (inactive)	> 100 µM (inactive)	> 100 µM (inactive)	> 100 µM (inactive)	> 100 µM (inactive)	> 100 µM (inactive)	> 100 µM (inactive)	> 100 µM (inactive)	> 100 µM (inactive)	> 100 µM (inactive)	> 100 µM (inactive)	> 100 µM (inactive)	> 100 µM (inactive)	> 100 µM (inactive)	> 100 µM (inactive)	> 100 µM (inactive)	> 100 µM (inactive)	> 100 µM (inactive)	> 100 µM (inactive)
Cc1nc(N)nc(N)c1N1CCN(Cc2ccccc2)CC1	37.1 µM (inactive)	31.8 µM (inactive)	> 53.6 µM (inactive)	25.2 µM (inactive)	42.4 µM (inactive)	35.3 µM (inactive)	27.1 µM (inactive)	> 86.3 µM (inactive)	14.2 µM (inactive)	17.1 µM (inactive)	> 100 µM (inactive)	14.9 µM (inactive)	> 39 µM (inactive)	16.1 µM (inactive)	64.6 µM (inactive)	> 37.8 µM (inactive)	56.1 µM (inactive)	36.6 µM (inactive)	48.8 µM (inactive)	45.4 µM (inactive)
CN(C)c1ccc(C=C2C(=O)NC(=S)NC2=O)c2ccccc12	98.9 µM (inactive)	> 100 µM (inactive)	> 100 µM (inactive)	> 100 µM (inactive)	> 100 µM (inactive)	25.1 µM (inactive)	67.6 µM (inactive)	> 100 µM (inactive)	49.9 µM (inactive)	71.9 µM (inactive)	> 100 µM (inactive)	27 µM (inactive)	39.4 µM (inactive)	29 µM (inactive)	62.8 µM (inactive)	> 100 µM (inactive)	68.4 µM (inactive)	33.5 µM (inactive)	34.3 µM (inactive)	60.4 µM (inactive)
O=C1c2c(O)cccc2C(C(=O)CCCCC(=O)C2c3cccc(O)c3C(=O)c3c(O)cccc32)c2cccc(O)c21	3.92 µM (inactive)	0.759 µM (active)	0.596 µM (active)	0.791 µM (active)	0.618 µM (active)	0.627 µM (active)	0.845 µM (active)	0.426 µM (active)	1.38 µM (inactive)	0.618 µM (active)	0.782 µM (active)	0.733 µM (active)	0.457 µM (active)	0.69 µM (active)	0.54 µM (active)	0.473 µM (active)	0.83 µM (active)	0.798 µM (active)	0.433 µM (active)	0.504 µM (active)
CCOC(=O)C1=C(C)C(C(=O)OC)/C(=C/c2cccc3cccnc23)C1=O (centres undefined)	> 10 µM (inactive)	> 10 µM (inactive)	> 10 µM (inactive)	> 10 µM (inactive)	> 10 µM (inactive)	> 10 µM (inactive)	4.76 µM (inactive)	> 10 µM (inactive)	> 10 µM (inactive)	> 10 µM (inactive)	> 10 µM (inactive)	> 10 µM (inactive)	> 10 µM (inactive)	> 10 µM (inactive)	> 10 µM (inactive)	> 10 µM (inactive)	> 10 µM (inactive)	> 10 µM (inactive)	> 10 µM (inactive)	> 10 µM (inactive)
OC1C2CCCCN2C[C@@H](O)[C@H]1O (some centres undefined)	> 100 µM (inactive)	> 100 µM (inactive)	> 100 µM (inactive)	> 100 µM (inactive)	> 100 µM (inactive)	> 100 µM (inactive)	> 100 µM (inactive)	> 100 µM (inactive)	> 100 µM (inactive)	> 100 µM (inactive)	> 100 µM (inactive)	> 100 µM (inactive)	> 100 µM (inactive)	> 100 µM (inactive)	> 100 µM (inactive)	> 100 µM (inactive)	> 100 µM (inactive)	> 100 µM (inactive)	> 100 µM (inactive)	> 100 µM (inactive)
